From US20190059368A1, “3,5-DIMETHOXYSTILBENE ANALOGS AND USES THEREOF” (The United States of America, as represented by the …, priority 2017, published 2019)
In brackets after ≈: the same amount, converted by molar mass. Where two headings read alike, the source gives them in different places. Marks after values point to notes of the source that are not given here.

Tests used:
[1] = system: Meloidogyne incognita second-stage juveniles (J2); assay: M. incognita assay with previously hatched J2 immersed in test solutions; details: in vivo
Procedure: (§1) Two types of assays were used to investigate activity against M. incognita: i) eggs were immersed in solutions of the test compounds, and ii) second-stage juveniles (J2) previously hatched from eggs were immersed in the test solutions. These assays were conducted with procedures similar to those in Meyer, et al. (J. Nematol. 2006, 38, 333). M. incognita race 1 (originally isolated in 2013 from a field in Maryland) was grown in the greenhouse on pepper (Capsicum annuum L.) cultivar PA-136. Egg masses were hand-picked from plant roots, rinsed three times with sterile distilled H2O, and agitated in 0.6% NaClO for 3.5 minutes to separate and surface-sterilize eggs. The eggs were rinsed in sterile distilled H2O and stored overnight at 4° C. before use in egg immersion assays. To collect J2 for direct immersion into the test compounds, sterilized eggs were placed into a hatching chamber made with a Spectra/Mesh Nylon Filter (openings 25 μm in diameter; Spectrum Laboratories Inc., Rancho Dominguez, Calif., USA) in an autoclaved dish. J2 that passed through the filter within 3 days were used immediately for assays.
The assays were conducted in 96-well polystyrene plates. For the assays with immersed eggs, each well received approximately 50 eggs in 35 μl of sterile deionized water (SDW). For assays with previously hatched J2, a suspension of approximately 50 J2 in 35 μl of SDW was placed into each well. Each well then received 165 μl of treatment or control. The solvent used to dissolve the test chemicals was a 1:1:1 mixture referred to herein as CTD: equal parts Cremophor® EL Castor Oil (BASF Corporation, Vandalia, Ill., USA), Tween 80® (Sigma-Aldrich, St. Louis, Mo., USA), and DMSO (Sigma-Aldrich). A high and low rate of each compound was tested. After addition to the nematode suspensions in the wells, the low and high rates were 83.3 and 166.7 μg/ml of each test compound, respectively, dissolved in 0.5% and 1.0% of each of the three combined solvents. Controls were CTD equivalent to the low and high rates, and SDW. Because of the large number of treatments, the test compounds were divided into two groups for the egg immersion assays. The compounds tested in the egg immersion Assay 1 were 3, 6a, 6e, 6f, 6g, 6n, 7a, 7c, 7e, 7f, 7n, 11, 12, 16, and 17. The compounds tested in the egg immersion Assay 2 were 6b, 6h, 6i, 6j, 6k, 6l , 7b, 7g, 7h, 7i, 7j, 7k, 7l, and 7m (data not shown). Test compounds used for assays with previously hatched J2 were selected based on results with the egg assays. […]
Each polystyrene culture plate was covered with a plastic adhesive sheet (Excel Scientific, Inc., Victorville, Calif., USA) and incubated at 25° C. […] In egg immersion assays, total numbers of hatched J2, and numbers of mobile and immobile J2, were counted after 2 and 7 days incubation in the test compounds. In the first assay with previously hatched J2, the numbers of mobile and immobile J2 were counted after 1 and 2 days incubation, the treatments removed and replaced with a SDW rinse, and 2 days later the mobile vs. immobile J2 counted again. […]
Data from the M. incognita assays were analyzed with the statistical package JMP 11.2.0 (SAS Institute, Cary, N.C., USA). Differences among numbers of hatched J2 in each treatment, and among percentage of mobile J2 per treatment (number mobile J2/total J2×100), were determined by the ANOVA, and means were compared using Tukey Kramer's adjustment for multiple comparisons (P<0.05). […]

[2] = system: Meloidogyne incognita eggs; assay: M. incognita egg immersion assay (hatch and mobility of hatched J2); assay type: in vivo; details: for Percent mobile J2, assay 2: 2 days
Procedure: as §1
The assays were conducted in 96-well polystyrene plates. For the assays with immersed eggs, each well received approximately 50 eggs in 35 μl of sterile deionized water (SDW). For assays with previously hatched J2, a suspension of approximately 50 J2 in 35 μl of SDW was placed into each well. Each well then received 165 μl of treatment or control. The solvent used to dissolve the test chemicals was a 1:1:1 mixture referred to herein as CTD: equal parts Cremophor® EL Castor Oil (BASF Corporation, Vandalia, Ill., USA), Tween 80® (Sigma-Aldrich, St. Louis, Mo., USA), and DMSO (Sigma-Aldrich). A high and low rate of each compound was tested. After addition to the nematode suspensions in the wells, the low and high rates were 83.3 and 166.7 μg/ml of each test compound, respectively, dissolved in 0.5% and 1.0% of each of the three combined solvents. Controls were CTD equivalent to the low and high rates, and SDW. Because of the large number of treatments, the test compounds were divided into two groups for the egg immersion assays. The compounds tested in the egg immersion Assay 1 were 3, 6a, 6e, 6f, 6g, 6n, 7a, 7c, 7e, 7f, 7n, 11, 12, 16, and 17. The compounds tested in the egg immersion Assay 2 were 6b, 6h, 6i, 6j, 6k, 6l , 7b, 7g, 7h, 7i, 7j, 7k, 7l, and 7m (data not shown). Test compounds used for assays with previously hatched J2 were selected based on results with the egg assays. The five compounds tested were 6b, 6f, 6g, 6i, and 7k, high and low rates.
Each polystyrene culture plate was covered with a plastic adhesive sheet (Excel Scientific, Inc., Victorville, Calif., USA) and incubated at 25° C. Ten wells (water controls) or five wells (all other treatments) were used per treatment in each assay. In egg immersion assays, total numbers of hatched J2, and numbers of mobile and immobile J2, were counted after 2 and 7 days incubation in the test compounds. In the first assay with previously hatched J2, the numbers of mobile and immobile J2 were counted after 1 and 2 days incubation, the treatments removed and replaced with a SDW rinse, and 2 days later the mobile vs. immobile J2 counted again. In assays with 6g and 7k, high rates and counts were made on Days 1, 2, 4, and 6, without a SDW rinse.
Data from the M. incognita assays were analyzed with the statistical package JMP 11.2.0 (SAS Institute, Cary, N.C., USA). Differences among numbers of hatched J2 in each treatment, and among percentage of mobile J2 per treatment (number mobile J2/total J2×100), were determined by the ANOVA, and means were compared using Tukey Kramer's adjustment for multiple comparisons (P<0.05). For percent mobile J2 on Day 2 in egg immersion Assays 1 and 2, and Day 4 with the five compounds in the J2 immersion assay, data were log10 (x+1)-transformed before analysis. Data presented are nontransformed means.

[3] = system: Cryptococcus neoformans ATCC 90113; assay: Antimicrobial microplate assay (modified CLSI); assay type: cell-based; details: Cryptococcus neoformans, ATCC90113; Cr. neoformans
Procedure: (§2) All organisms were obtained from the American Type Culture Collection (ATCC; Manassas, Va., USA) and included the fungi Cryptococcus neoformans ATCC 90113 and the bacteria Staphylococcus aureus ATCC 29213, methicillin-resistant S. aureus ATCC 33591 (MRSA), and Mycobacterium intracellulare ATCC 23068. All organisms were tested using modified versions of the CLSI (formerly NCCLS) methods. For all organisms excluding My. intracellulare, optical density was used to monitor growth. Medium supplemented with 5% AlamarBlue® (BioSource International, Camarillo, Calif., USA) was utilized for growth detection of My. intracellulare. Samples (dissolved in DMSO) were serially diluted in 20% DMSO/saline and transferred (10 μl) in duplicate to 96-well flat-bottom microplates. Inocula were prepared by correcting the OD630 of microbe suspensions in Sabouraud Dextrose for Cr. neoformans, cation-adjusted Mueller-Hinton (Difco) at pH 7.3 for Staphylococcus spp., and 5% AlamarBlue® (BioSource International) in Middlebrook 7H9 broth with OADC enrichment, pH=7.0 for My. intracellulare, to afford an assay volume of 200 μl and final target inocula of: Cr. neoformans.: b 1.5×10^3, My. intracellulare: 2.0×10^6, and Staphylococcus spp.,: 5.0×10^5 CFU/ml. Final sample test concentrations were 1/100th the DMSO stock concentration. Drug controls (Ciprofloxacin (ICN Biomedicals, Ohio, USA) for bacteria and Amphotericin B (ICN Biomedicals) for fungi) were included in each assay. All organisms were read at either 530 nm using the Biotek Powerwave XS plate reader (Bio-Tek Instruments, VT) or 544ex1590em (My. intracellulare) using the Polarstar Galaxy Plate Reader (BMG LabTechnologies, Germany) before and after incubation: Staphylococcus spp. at 35° C. for 16-20 h, Cr. neoformans at 35° C. for 70-74 h, and My. intracellulare at 37° C. and 10% CO2 for 70-74 h. IC50 Values (concentrations that afford 50% inhibition relative to controls) werecalculated using XLfit 4.2 software (IDBS, Alameda, Calif.) using fit model 201.

[4] = system: Staphylococcus aureus ATCC 29213; assay: Antimicrobial microplate assay (modified CLSI); assay type: cell-based; details: ATCC29213, S. aureus
Procedure: as §2, with “Drug controls (Ciprofloxacin (ICN Biomedicals, Ohio, USA) for bacteria and Amphotericin B (ICN Biomedicals) for fungi) were included in each assay.” left out

[5] = system: methicillin-resistant S. aureus ATCC 33591 (MRSA); assay: Antimicrobial microplate assay (modified CLSI); assay type: cell-based; details: Staphylococcus aureus
Procedure: as §2, with “Drug controls (Ciprofloxacin (ICN Biomedicals, Ohio, USA) for bacteria and Amphotericin B (ICN Biomedicals) for fungi) were included in each assay.” left out

[6] = system: Mycobacterium intracellulare ATCC 23068; assay: Antimicrobial microplate assay (modified CLSI, AlamarBlue); assay type: cell-based; details: ATCC23068, My. intracellulare
Procedure: as §2, with “Drug controls (Ciprofloxacin (ICN Biomedicals, Ohio, USA) for bacteria and Amphotericin B (ICN Biomedicals) for fungi) were included in each assay.” left out

[7] = system: adults of ORL and PR strains of Ae. aegypti; assay: Adult mosquito assay, ORL and PR strains; assay type: in vivo; details: for Percent Mortality: adults, 6.25%, 24 h
Procedure: (§3) Further tests were performed on compounds 11 and 12 to determine their effect on larvae and adult mosquitoes. The compounds were tested in the standard bioassays using the Orlando (ORL), pesticide-susceptible strain and the Puerto Rico (PR), pyrethroid-resistant strain of Ae. aegypti. The ORL strain has been in continuous colony since 1952 with no pesticide exposure while the resistant PR strain was colonized from egg papers collected near San Juan, PR in June, 2012. The PR strain is available as a resistant reference strain through BEIResources/CDC. Mortality was determined in the larval assays at four different concentrations (1, 0.5, 0.25, and 0.1 μg/μl) and three concentrations for adults (6.25%, 3.125%, and 1.56%). Mortality was recorded 24 h post-application, and in all assays, a negative solvent and a positive control using permethrin were utilized; tests were done in triplicate. Assays were conducted according to published procedures as described in Wanner, J. et al. (Curr. Bioact. Compd. 2015, 11, 13).

Ae. aegypti larvae = assay: Larvicidal bioassay against 1-day-old Ae. aegypti larvae (screening and dose-response); assay type: in vivo, Aedes aegypti
Procedure: Analogs were screened for activity against Ae. aegypti larvae following a bioassay system described in Ali, A., et al. (J. Med. Entomol. 2014, 51, 824). Ae. aegypti larvae used in these studies were from a laboratory colony maintained at the Mosquito and Fly Research Unit at the Center for Medical, Agricultural and Veterinary Entomology, USDA-ARS, Gainesville, Fla. For larval bioassays, the eggs were hatched and the larvae were maintained at a temperature of 27±2° C. and 60±10% RH with a photoperiod regimen of 12:12 hour (Light:Dark). Five 1-day-old Ae. aegypti larvae were added into a droplet of H2O to each well of 24-well plates (BD Labware, Franklin Lakes, N.J., USA) by use of a disposable 22.5-cm Pasteur pipette. A quantity of 50 μl of larval diet (2% slurry of 3:2 beef liver powder (Now Foods, Bloomingdale, Ill., USA) and Brewer's yeast (Lewis Laboratories Ltd., Westport, Conn., USA) was added to each well using a Finnpipette stepper (Thermo Fisher, Vantaa, Finland). All chemicals tested were diluted in DMSO. A quantity of 11 μl of the test chemical was added to the labeled wells, while 11 μl of DMSO was added to control treatments. After the treatment application, the plates were swirled in clockwise and counterclockwise motions and front and back and side to side five times to ensure even mixing of the chemicals. Larval mortality was recorded 24 hours post-treatment. […] Three dosages, 100, 50, and 25 ppm, were used in the screening bioassay to determine the larvicidal activity and each treatment was replicated twice. […] Each treatment was replicated ten times. LC50 Values for larvicidal data were calculated using SAS, Proc Probit. Control mortality was corrected using the Abbott's formula.

[8] = system: larvae of ORL and PR strains of Ae. aegypti; assay type: in vivo; details: for Percent Mortality: larvae, 24 h
Procedure: as §3

[9] = 1-day-old larvae, mortality 24 hours post-treatment

COc1ccc(/C=C\c2cc(OC)c(C)c(OC)c2)cc1OC [Compound 7k, (Z)-1,3-dimethoxy-5-(3,4-dimethoxystyryl)-2-methylbenzene]
effect on mobility of J2 previously hatched in water and immersed directly (in words) [1]: had an effect on J2 mobility
Percent mobile J2, assay 2 ([2]; high rate (166.7 μg/ml)): 72.2%
Percent mobile J2, assay 2 ([2]; low rate (83.3 μg/ml)): 92.5%
effect on mobility of J2 hatched from eggs immersed in solutions (in words) ([2]; in vivo): some suppressive effect on mobility

COc1cc(/C=C/c2ccc(O)c(CC=C(C)C)c2)cc(OC)c1 [Compound 11, (E)-4-(3,5-dimethoxystyryl)-2-(3-methylbut-2-en-1-yl)phenol]
IC50 [3]: 13.6 µM
MIC [3]: 30.8 µM (≈ 10 µg/mL)
IC50 [4]: 13.1 µM
MIC [4]: 30.8 µM (≈ 10 µg/mL)
IC50 [5]: 9.1 µM
MIC [5]: 15.4 µM (≈ 5 µg/mL)
IC50 [6]: 47.2 µM
MIC [6]: 61.7 µM (≈ 20 µg/mL)
effectiveness against adult mosquitoes (in words) ([7]; both strains): somewhat effective
LC50 (LD50 converted to μM) (Ae. aegypti larvae; 1-day-old larvae, 24 hours): 45.31 µM
LD50 (95% CI) (Ae. aegypti larvae; [9]): 14.7^b ppm
LD90 (95% CI) (Ae. aegypti larvae; [9]): 34.7 ppm
larvicidal activity (in words) (Ae. aegypti larvae; screening at 100, 50 and 25 ppm): high larvicidal activity
effectiveness against larvae (in words) ([8]; ORL and PR strains): highly effective
Percent Mortality ([8]; ORL strain, 0.1 μg/μl): 100%
Percent Mortality ([8]; ORL strain, 0.25 μg/μl): 100%
Percent Mortality ([8]; ORL strain, 0.5 μg/μl): 100%
Percent Mortality ([8]; ORL strain, 1.0 μg/μl): 100%
Percent Mortality ([8]; PR strain, 0.1 μg/μl): 93.3 ± 11.5%
Percent Mortality ([8]; PR strain, 0.25 μg/μl): 100%
Percent Mortality ([8]; PR strain, 0.5 μg/μl): 100%
Percent Mortality ([8]; PR strain, 1.0 μg/μl): 100%

CC1(C)C(C=C(Cl)Cl)C1C(=O)OCc1cccc(Oc2ccccc2)c1 (stereo not drawn) [Permethrin, permethrin, reference compound]
Percent Mortality ([7]; ORL strain): 100%
Percent Mortality ([7]; PR strain): 85 ± 10%
Percent Mortality ([8]; ORL strain, 0.1 μg/μl): 100%
Percent Mortality ([8]; PR strain, 0.1 μg/μl): 93.3 ± 11.5%
